Experimental data published in ChEMBL document CHEMBL1201862, “PubChem BioAssay data set” (2004).
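96-well plates; 48 h exposure; 5 concentrations. Endpoints by linear interpolation between flanking doses. Not reached: highest tested concentration assigned. GI50 = concentration required for 50% inhibition of growth.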 The source made the active and inactive calls. Cut-off read from the data, not from the text of the source: active = GI50 up to about 1.1 µM and inactive = higher.

Key:
Test in all cases: NCI anticancer screen, dose series, 48 h
SK-MEL-5 = tested on: SK-MEL-5
IGROV-1 = tested on: IGROV-1
HOP-92 = tested on: HOP-92
NCI-H522 = tested on: NCI-H522
Malme-3M = tested on: Malme-3M
NCI-H23 = tested on: NCI-H23
786-0 = tested on: 786-0
TK-10 = tested on: TK-10
OVCAR-5 = tested on: OVCAR-5
NCI-H226 = tested on: NCI-H226
SK-MEL-28 = tested on: SK-MEL-28
UO-31 = tested on: UO-31
SN12C = tested on: SN12C
MDA-N = tested on: MDA-N
HL-60 = tested on: HL-60
SW-620 = tested on: SW-620
A498 = tested on: A498
SF-295 = tested on: SF-295
MCF7 = tested on: MCF7

| SMILES | GI50 (SK-MEL-5) | GI50 (IGROV-1) | GI50 (HOP-92) | GI50 (NCI-H522) | GI50 (Malme-3M) | GI50 (NCI-H23) | GI50 (786-0) | GI50 (TK-10) | GI50 (OVCAR-5) | GI50 (NCI-H226) | GI50 (SK-MEL-28) | GI50 (UO-31) | GI50 (SN12C) | GI50 (MDA-N) | GI50 (HL-60) | GI50 (SW-620) | GI50 (A498) | GI50 (SF-295) | GI50 (MCF7) |
| --- | --- | --- | --- | --- | --- | --- | --- | --- | --- | --- | --- | --- | --- | --- | --- | --- | --- | --- | --- |
| Cc1nnc2cc(C(=O)O)c3ccccc3n2c1=O | > 10 µM (inactive) | > 10 µM (inactive) | > 10 µM (inactive) | > 10 µM (inactive) | > 10 µM (inactive) | > 10 µM (inactive) | > 10 µM (inactive) | > 10 µM (inactive) | > 10 µM (inactive) | > 10 µM (inactive) | > 10 µM (inactive) | > 10 µM (inactive) | > 10 µM (inactive) | > 10 µM (inactive) | > 10 µM (inactive) | > 10 µM (inactive) | > 10 µM (inactive) | > 10 µM (inactive) | > 10 µM (inactive) |
| c1ccc(C2=NN(c3nc4ccccc4s3)C3(CCCCC3)N2)nc1 | 20.1 µM (inactive) | 19.7 µM (inactive) | 31.7 µM (inactive) | 26.5 µM (inactive) | 11.7 µM (inactive) | 24.9 µM (inactive) | 18.3 µM (inactive) | 21.8 µM (inactive) | 43.5 µM (inactive) | 19.4 µM (inactive) | 44.3 µM (inactive) | 35.1 µM (inactive) | 19.7 µM (inactive) | 24.9 µM (inactive) | 25.2 µM (inactive) | 30.7 µM (inactive) | 32.2 µM (inactive) | 27.8 µM (inactive) | 21.6 µM (inactive) |
| NCCNc1nc(N2CCCC2)c2nc(Cl)c(NCc3ccccc3)nc2n1 | 1.75 µM (inactive) | 1.66 µM (inactive) | 1.78 µM (inactive) | 1.67 µM (inactive) | 2.07 µM (inactive) | 2.14 µM (inactive) | 1.77 µM (inactive) | 1.67 µM (inactive) | 2.44 µM (inactive) | 3.15 µM (inactive) | 1.79 µM (inactive) | 1.73 µM (inactive) | 1.52 µM (inactive) | 1.67 µM (inactive) | 1.97 µM (inactive) | 2.04 µM (inactive) | 1.83 µM (inactive) | 1.86 µM (inactive) | 1.73 µM (inactive) |
| COC1=C2C=[N+](C)C3C(=C2C=CC1OC)Cc1cc2c(cc13)OCO2 (stereo not given) | 11.2 µM (inactive) | > 10 µM (inactive) | 22.7 µM (inactive) | 4.32 µM (inactive) | 3.88 µM (inactive) | 13 µM (inactive) | 11.9 µM (inactive) | 15.5 µM (inactive) | 18.2 µM (inactive) | 15.4 µM (inactive) | 15.1 µM (inactive) | 13.7 µM (inactive) | 4.43 µM (inactive) | 11.4 µM (inactive) | 4.61 µM (inactive) | 26.2 µM (inactive) | 43.5 µM (inactive) | 15.3 µM (inactive) | 9.77 µM (inactive) |
| CC1=C(C(=O)OCCO[N+](=O)[O-])C(c2ccccc2[N+](=O)[O-])C(C(=O)OC(C)C)=C(C)N1 (stereo not given) | 13.9 µM (inactive) | 15.6 µM (inactive) | 14.5 µM (inactive) | 16 µM (inactive) | 17.3 µM (inactive) | 20.7 µM (inactive) | 16.6 µM (inactive) | 21.8 µM (inactive) | 14.9 µM (inactive) | 14 µM (inactive) | 16.5 µM (inactive) | 13.2 µM (inactive) | 17.6 µM (inactive) | 17.2 µM (inactive) | 39.3 µM (inactive) | 19.2 µM (inactive) | 20.7 µM (inactive) | 15.7 µM (inactive) | 19.9 µM (inactive) |
| O=[N+]([O-])c1cccc2nc3ccccc3c(NCCC[N+]3([O-])CCCCC3)c12 | 0.36 µM (active) | 0.394 µM (active) | 0.275 µM (active) | 0.134 µM (active) | 0.168 µM (active) | 0.232 µM (active) | 0.438 µM (active) | 3.06 µM (inactive) | 0.498 µM (active) | 0.592 µM (active) | 0.502 µM (active) | 12.9 µM (inactive) | 0.39 µM (active) | 0.176 µM (active) | 0.745 µM (active) | 0.468 µM (active) | 0.804 µM (active) | 3.06 µM (inactive) | 0.176 µM (active) |
| Cc1ccc(N2C(=O)CC(=O)N(NC(=O)C(C)Oc3ccccc3C)C2=S)cc1 (stereo not given) | > 100 µM (inactive) | > 100 µM (inactive) | > 100 µM (inactive) | > 100 µM (inactive) | > 100 µM (inactive) | > 100 µM (inactive) | > 100 µM (inactive) | > 100 µM (inactive) | > 100 µM (inactive) | > 100 µM (inactive) | > 100 µM (inactive) | > 100 µM (inactive) | > 100 µM (inactive) | 94.8 µM (inactive) | > 100 µM (inactive) | > 100 µM (inactive) | > 100 µM (inactive) | > 100 µM (inactive) | > 100 µM (inactive) |
| Sc1nn2c(COc3cc(Cl)c(OCc4nnc5sc(S)nn45)cc3Cl)nnc2s1 | 41.2 µM (inactive) | 41.6 µM (inactive) | 38.9 µM (inactive) | 20.1 µM (inactive) | 40.1 µM (inactive) | > 100 µM (inactive) | 39.5 µM (inactive) | > 100 µM (inactive) | > 100 µM (inactive) | > 100 µM (inactive) | 31.3 µM (inactive) | 31.3 µM (inactive) | 41.2 µM (inactive) | 33.6 µM (inactive) | 37.8 µM (inactive) | 30.3 µM (inactive) | > 100 µM (inactive) | > 100 µM (inactive) | 18.2 µM (inactive) |
| C[C@@H](CC(O)C(O)C(C)(C)O)C1CCC23CC12CCC1[C@@]2(C)CCC(O)C(C)(C)C2CC(OC2OC(CO)C(O)C(O)C2O)[C@]13C (stereo not given in full) | > 10 µM (inactive) | > 10 µM (inactive) | > 10 µM (inactive) | > 10 µM (inactive) | > 10 µM (inactive) | > 10 µM (inactive) | > 10 µM (inactive) | > 10 µM (inactive) | > 10 µM (inactive) | > 10 µM (inactive) | > 10 µM (inactive) | > 10 µM (inactive) | > 10 µM (inactive) | > 10 µM (inactive) | > 10 µM (inactive) | > 10 µM (inactive) | > 10 µM (inactive) | > 10 µM (inactive) | > 10 µM (inactive) |
| c1cnc(N2CCN(Cc3c[nH]c4ccccc34)CC2)nc1 | 36.2 µM (inactive) | > 100 µM (inactive) | > 100 µM (inactive) | > 100 µM (inactive) | 43.4 µM (inactive) | 93.5 µM (inactive) | 14.3 µM (inactive) | 22.9 µM (inactive) | > 100 µM (inactive) | 58.7 µM (inactive) | > 100 µM (inactive) | 38.5 µM (inactive) | 42.1 µM (inactive) | 25.1 µM (inactive) | 51.6 µM (inactive) | > 100 µM (inactive) | 28.7 µM (inactive) | 38.3 µM (inactive) | 16.9 µM (inactive) |
| CC1(C)CC(C)(C)C1=NNC(N)=O | > 100 µM (inactive) | > 100 µM (inactive) | > 100 µM (inactive) | > 100 µM (inactive) | > 100 µM (inactive) | > 100 µM (inactive) | > 100 µM (inactive) | > 100 µM (inactive) | > 100 µM (inactive) | > 100 µM (inactive) | > 100 µM (inactive) | > 100 µM (inactive) | > 100 µM (inactive) | > 100 µM (inactive) | > 100 µM (inactive) | > 100 µM (inactive) | > 100 µM (inactive) | > 100 µM (inactive) | > 100 µM (inactive) |
| C(=C/c1nnnn1-c1ccccc1)/Nc1ccccc1 | 14.5 µM (inactive) | 35.2 µM (inactive) | 24.4 µM (inactive) | 20.8 µM (inactive) | 31.4 µM (inactive) | 23.7 µM (inactive) | 39.2 µM (inactive) | 34.4 µM (inactive) | 24.8 µM (inactive) | 19.1 µM (inactive) | 78.7 µM (inactive) | 20.6 µM (inactive) | 30.8 µM (inactive) | 22 µM (inactive) | 41.2 µM (inactive) | 37.3 µM (inactive) | > 100 µM (inactive) | 26.2 µM (inactive) | 19.3 µM (inactive) |
| COc1ccc(/C=C2\N=C3N(Cc4ccccc4)C=C(N)N3C2=O)cc1 | 46.7 µM (inactive) | 69.3 µM (inactive) | 58.7 µM (inactive) | 49.1 µM (inactive) | > 100 µM (inactive) | > 100 µM (inactive) | 52.7 µM (inactive) | > 100 µM (inactive) | 82.8 µM (inactive) | 55 µM (inactive) | > 100 µM (inactive) | 46.6 µM (inactive) | > 100 µM (inactive) | > 100 µM (inactive) | 55 µM (inactive) | > 100 µM (inactive) | 88.1 µM (inactive) | 61.2 µM (inactive) | > 100 µM (inactive) |
| COC(=O)CN(CC(O)C(NC(C)=O)C(O)C=O)C(=O)OCc1ccccc1 (stereo not given) | > 100 µM (inactive) | > 100 µM (inactive) | > 100 µM (inactive) | > 100 µM (inactive) | > 50.5 µM (inactive) | > 100 µM (inactive) | > 100 µM (inactive) | > 100 µM (inactive) | > 100 µM (inactive) | > 100 µM (inactive) | > 100 µM (inactive) | > 100 µM (inactive) | > 100 µM (inactive) | > 100 µM (inactive) | > 100 µM (inactive) | > 100 µM (inactive) | > 100 µM (inactive) | > 100 µM (inactive) | > 100 µM (inactive) |
| O=[N+]([O-])/C(C(Cl)=C(Cl)Cl)=C(/Cl)SCc1ccccc1 | 8.43 µM (inactive) | 20.7 µM (inactive) | 4.33 µM (inactive) | 2.78 µM (inactive) | 2.47 µM (inactive) | 6.03 µM (inactive) | 1.65 µM (inactive) | 5.86 µM (inactive) | 5.09 µM (inactive) | 25.2 µM (inactive) | 5.65 µM (inactive) | 2.22 µM (inactive) | 3.61 µM (inactive) | 1.84 µM (inactive) | 0.229 µM (active) | 2.18 µM (inactive) | 24.3 µM (inactive) | 34.4 µM (inactive) | 0.495 µM (active) |
